Source: patent publication US7205011B2, “Anti-inflammatory activity of a specific turmeric extract” (Board of Regents, Acting for and on behalf of, University …, priority 2003, dated 2007)
Values after ≈ are worked out from the molar mass of the structure shown. Read-outs that look alike come from different tables or passages of the source. Values belong to the molecule of their own block, whether it stands above or below them.

How the values were obtained:
[1] = system: COX-2 expression; settings: Lee et al. 2002; IC50 values not reported; cited from earlier work
[2] = system: LPS-induced PGE2 production; experiment: Inhibition of LPS-induced PGE2 production in PMA-differentiated HL-60 cells (ELISA); assay type: cell-based; settings: Homo sapiens
[3] = system: LPS-induced TNF-α production; experiment: Inhibition of LPS-induced TNF-α production in PMA-differentiated HL-60 cells (ELISA); assay type: cell-based; settings: Homo sapiens, read-out: IC50 TNF-α (50% inhibition of LPS-induced mediator production)
[4] = system: TNF-α; settings: Chan et al. 1995; Abe et al. 1999; cited from earlier work
[5] = system: COX-2 mRNA; experiment: COX-2 expression assay (Quantikine mRNA) in LPS-stimulated HL-60 cells; settings: HL-60 cells + LPS
[6] = Table 1, curcuminoids from fraction 5, HL-60 cells, LPS 1 μg/ml, 24 hrs, read-out: IC50 PGE2 (50% inhibition of LPS-induced mediator production)
[7] = Table 1, curcuminoids from fraction 5, HL-60 cells, LPS 1 μg/ml, 24 hrs

- IC50 ([2]; HL-60 cells, LPS 1 μg/ml, 24 hrs, read-out: IC50 for LPS-induced PGE2 production): 0.052 µg/mL (≈ 0.145 µM)
Structure (SMILES): COc1ccc2c(c1)c(CC(=O)O)c(C)n2C(=O)c1ccc(Cl)cc1 [indomethacin]

- IC50 [2, 6]: 1.2 µg/mL (≈ 3.89 µM)
- IC50 [3, 7]: 24.6 µg/mL (≈ 79.8 µM)
Structure (SMILES): O=C(/C=C/c1ccc(O)cc1)CC(=O)/C=C/c1ccc(O)cc1 (single isomer, unassigned) [Bisdemethoxycurcumin, bisdemethoxycurcumin]

More lines, now with the values behind:

Structure (SMILES): CC(C)=CCC[C@@H](C)c1ccc(C)c(O)c1 [xanthorrhizol]
- concentrations showing inhibition of COX-2 expression [1]: 5 to 10 µg/mL

Structure (SMILES): COc1cc(/C=C/C(O)=C/C(=O)/C=C/c2ccc(O)cc2)ccc1O (single isomer, unassigned) [Demethoxycurcumin, demethoxycurcumin]
- IC50 ([2]; HL-60, 24 h, read-out: IC50 PGE2 (50% inhibition of LPS-induced mediator production)): 2.6 µg/mL (≈ 7.68 µM)
- IC50 ([3]; HL-60, 24 h): 24.7 µg/mL (≈ 73 µM)

Structure (SMILES): COc1cc(/C=C/C(=O)CC(=O)/C=C/c2ccc(O)c(OC)c2)ccc1O (single isomer, unassigned) [Curcumin, curcumin]
- concentration producing 50% decrease in production of TNF-α [4]: 2 to 10 µg/mL
- IC50 [2, 6]: 0.45 µg/mL (≈ 1.22 µM)
- IC50 [3, 7]: 28.8 µg/mL (≈ 78.2 µM)
- inhibition (decrease) of COX-2 expression ([5]; 0.5 μg/mL, 24 hrs, relative to LPS alone = 100%): greater than 50%
- inhibition of COX-2 expression ([5]; 1.0 μg/ml, 24 hrs, relative to LPS alone = 100%): greater than 50%
- effect on COX-2 expression / COX-2 mRNA levels ([5]; concentration not given, result in words): inhibited COX-2 expression
